# Reference: ChEMBL document CHEMBL5154681, “Small Amphiphilic Peptides: Activity Against a Broad Range of Drug-Resistant Bacteria and Structural Insight into Membranolytic Properties” (J Med Chem, 2022)
# Square brackets hold non-standard residues; d marks the D form. Peptide text beside a SMILES is read from it. Dip = N[C@H](C(=O)O)C(c1ccccc1)c1ccccc1
# Columns and labels:
# [1] = test system: Staphylococcus aureus; experiment: Antibacterial activity against methicillin resistant Staphylococcus aureus ATCC BAA-1556 incubated for 24 hrs by microtiter plate method; format: functional
# [2] = test system: Pseudomonas aeruginosa; experiment: Antibacterial activity against Pseudomonas aeruginosa ATCC 10145 incubated for 24 hrs by microtiter plate method; format: functional
# [3] = test system: Bacillus subtilis; experiment: Antibacterial activity against Bacillus subtilis ATCC 6633 incubated for 24 hrs by microtiter plate method; format: functional
# [4] = test system: Enterococcus faecalis; experiment: Antibacterial activity against vancomycin-resistant Enterococcus faecalis ATCC 51575 incubated for 24 hrs by microtiter plate method; format: functional
# [5] = Selectivity ratio of MIC for antibacterial activity against Klebsiella pneumoniae ATCC 13883 to MIC for antibacterial activity against carbapenem-resistant Klebsiella pneumoniae ATCC BAA-2470; format: functional
# [6] = test system: Klebsiella pneumoniae; experiment: Antibacterial activity against Klebsiella pneumoniae ATCC 13883 […] incubated for 24 hrs by microtiter plate method; format: functional
# [7] = Selectivity ratio of MIC for antibacterial activity against Pseudomonas aeruginosa ATCC 10145 to MIC for antibacterial activity against imipenem-resistant Pseudomonas aeruginosa ATCC BAA-1744; format: functional
# [8] = test system: Klebsiella pneumoniae; experiment: Antibacterial activity against carbapenem-resistant Klebsiella pneumoniae ATCC BAA-2470 incubated for 24 hrs by microtiter plate method; format: functional
# [9] = (§1) Hemolytic activity in human RBC assessed as hemolysis incubated for 2 hrs by spectrophotometer analysis; format: toxicity, cell-based, Erythrocyte; conditions: human red blood cells (erythrocytes)
# [10] = test system: Streptococcus pneumoniae; experiment: Antibacterial activity against […] ATCC 49619 incubated for 24 hrs by microtiter plate method; format: functional
# [11] = test system: Enterococcus faecium; experiment: Antibacterial activity against Enterococcus faecium ATCC 27270 incubated for 24 hrs by microtiter plate method; format: functional
# [12] = test system: Enterococcus faecium; experiment: Antibacterial activity against vancomycin-resistant Enterococcus faecium ATCC 700221 incubated for 24 hrs by microtiter plate method; format: functional
# [13] = test system: Escherichia coli; experiment: Antibacterial activity against Escherichia coli ATCC 25922 incubated for 24 hrs by microtiter plate method; format: functional
# [14] = test system: Enterococcus faecalis; experiment: Antibacterial activity against Enterococcus faecalis ATCC 29212 incubated for 24 hrs by microtiter plate method; format: functional
# [15] = test system: Staphylococcus aureus; experiment: Antibacterial activity against Staphylococcus aureus ATCC 29213 incubated for 24 hrs by microtiter plate method; format: functional
# [16] = test system: Pseudomonas aeruginosa; experiment: Antibacterial activity against imipenem resistant Pseudomonas aeruginosa ATCC BAA-1744 incubated for 24 hrs by microtiter plate method; format: functional
# [17] = test system: Bacillus cereus; experiment: Antibacterial activity against Bacillus cereus ATCC 13061 incubated for 24 hrs by microtiter plate method; format: functional
# [18] = test system: Acinetobacter baumannii; experiment: Antibacterial activity against ciprofloxacin resistance Acinetobacter baumannii ATCC BAA1605 incubated for 24 hrs by microtiter plate method; format: functional
# [19] = test system: Pseudomonas aeruginosa; experiment: Antibacterial activity against Pseudomonas aeruginosa ATCC 27883 incubated for 24 hrs by microtiter plate method; format: functional
# [20] = test system: Streptococcus pneumoniae; experiment: Antibacterial activity against multidrug resistant […] ATCC 700677 incubated for 24 hrs by microtiter plate method; format: functional
# [21] = test system: Escherichia coli; experiment: Antibacterial activity against Escherichia coli NDM-1-resistant ATCC BAA-2452 incubated for 24 hrs by microtiter plate method; format: functional
# [22] = test system: Erythrocyte; experiment: as §1; format: toxicity, cell-based; conditions: erythrocyte, 2 h
smiles,measurement,setting,value
N=C(N)NCCC[C@@H]1NC(=O)[C@H](CCCNC(=N)N)NC(=O)[C@H](C(c2ccccc2)c2ccccc2)NC(=O)[C@H](C(c2ccccc2)c2ccccc2)NC(=O)[C@H](C(c2ccccc2)c2ccccc2)NC(=O)[C@H](CCCNC(=N)N)NC1=O (cyclo([Dip][Dip][Dip]RRR)),MIC,"[1]; Staphylococcus aureus, ATCC BAA-1556, 24 h, read-out: MIC",3.1 µg/mL
same,MIC,[2],50 µg/mL
same,MIC,[3],3.1 µg/mL
same,MIC,[4],12.5 µg/mL
same,Ratio,[5],2
same,MIC,[6],> 50 µg/mL
same,Ratio,[7],2
same,MIC,[8],12.5 µg/mL
same,HC50 at 2 h,[9],45 µg/mL
same,MIC,[10],50 µg/mL
same,MIC,[11],3.1 µg/mL
same,MIC,[12],6.2 µg/mL
same,MIC,"[13]; Escherichia coli, ATCC 25922, 24 h, read-out: MIC",12.5 µg/mL
same,MIC,[14],12.5 µg/mL
same,MIC,"[15]; Staphylococcus aureus, ATCC 29213, read-out: MIC",3.1 µg/mL
same,MIC,[16],25 µg/mL
same,MIC,[17],6.2 µg/mL
same,MIC,[18],25 µg/mL
same,MIC,"[19]; Pseudomonas aeruginosa, ATCC 27883, 24 h, read-out: MIC",12.5 µg/mL
same,MIC,[20],25 µg/mL
same,MIC,[21],25 µg/mL
N=C(N)NCCC[C@@H]1NC(=O)[C@H](CCCNC(=N)N)NC(=O)[C@H](C(c2ccccc2)c2ccccc2)NC(=O)[C@H](C(c2ccccc2)c2ccccc2)NC(=O)[C@H](CCCNC(=N)N)NC(=O)[C@H](CCCNC(=N)N)NC(=O)[C@H](C(c2ccccc2)c2ccccc2)NC1=O (stereo in doubt; 17C),MIC,[1]; 24 h,12.5 µg/mL
same,HC50,[22],145 µg/mL
same,MIC,[19]; 24 h,>100 µg/mL
N=C(N)NCCC[C@@H]1NC(=O)[C@H](CCCNC(=N)N)NC(=O)[C@H](Cc2ccc3ccccc3c2)NC(=O)[C@H](Cc2ccc3ccccc3c2)NC(=O)[C@H](CCCNC(=N)N)NC(=O)[C@H](CCCNC(=N)N)NC(=O)[C@H](Cc2ccc3ccccc3c2)NC1=O (stereo in doubt; 19C),MIC,[1],6.2 µg/mL
same,HC50,[22],110 µg/mL
same,MIC,[13]; 24 h,50 µg/mL
same,MIC,[15],6.2 µg/mL
same,MIC,[19]; 24 h,50 µg/mL
